Consider 9 compounds from US6906203B1, “Substituted 4H-chromene and analogs as activators of caspases and inducers of apoptosis and the use thereof” (Cytovia, Inc., priority 1999, dated 2005).

Molecules are shown by their SMILES. Where two headings read alike, the source gives them in different places.

One assay has as its system T-47D cells. Put plainly: Caspase cascade activation assay (N-(Ac-DEVD)-N'-ethoxycarbonyl-R110 fluorogenic substrate) in T-47D. The note with it: 24 h incubation; for EC50: read-out: Caspase potency EC50; for Caspase activity Ratio: ratio of net RFU of test compound to control. The assay is classed as cell-based, Human. As to the method:
(§1) Human breast cancer cell lines T47D and ZR-75-1 were grown according to media component mixtures designated by American Type Culture Collection +10% FCS (Life Technologies, Inc.), in a 5% CO2-95% humidity incubator at 37° C. T-47D and ZR-75-1 cells were maintained at a cell density between 30 and 80% confluency at a cell density of 0.1 to 0.6×10^6 cells/ml. Cells were harvested at 600×g and resuspended at 0.65×10^6 cells/ml into appropriate media +10% FCS . […] An aliquot of 45 μl of cells was added to a well of a 96-well microtiter plate containing 5 μl of a 10% DMSO in RPMI-1640 media solution without test compound as the control sample. The samples were mixed by agitation and then incubated at 37° C. for 24 h in a 5% CO2-95% humidity incubator. After incubation, the samples were removed from the incubator and 50 μl of a solution containing 20 μM of N-(Ac-DEVD)-N′-ethoxycarbonyl-R110 (SEQ ID NO: 1) fluorogenic substrate (Cytovia, Inc.; WO99/18856), 20% sucrose (Sigma), 20 mM DTT (Sigma), 200 mM NaCl (Sigma), 40 mM Na PIPES buffer pH 7.2, and 500 μg/ml lysolecithin (Calbiochem) was added. The samples were mixed by agitation and incubated at room temperature. Using a fluorescent plate reader (Model 1420 Wallac Instruments), an initial reading (T=0) was made approximately 1-2 min after addition of the substrate solution, employing excitation at 485 nm and emission at 530 nm, to determine the background fluorescence of the control sample. After the 3 h incubation, the samples were read for fluorescence as above (T=3 h).
(§2) The Relative Fluorescence Unit values (RFU) were used to calculate the sample readings as follows: RFU(T=3h)−Control RFU (T=0)=Net RFU(T=3h)
(§3) The EC50 (nM) was determined by a sigmoidal dose-response calculation (Prism 2.0, GraphPad Software Inc.).

Another assay has as its system ZR-75-1 cells. Description: Caspase cascade activation assay (N-(Ac-DEVD)-N'-ethoxycarbonyl-R110 fluorogenic substrate) in ZR-75-1. Format: cell-based, Human. The settings on record: 24 h incubation; for EC50: read-out: Caspase potency EC50; for Caspase activity Ratio: ratio of net RFU of test compound to control. As to the method:
as §1, §2, §3

Setting [1] is: Homo sapiens, T47D, 0.016 to 1 μM final.
The mark [2] stands for this setting: Homo sapiens, 0.016 to 1 μM final.

As for `Cc1ccc(C2C(C#N)=C(N)Oc3cc(N(C)C)ccc32)cc1[N+](=O)[O-]` (stereo not drawn) [Example 4, 2-Amino-3-cyano-7-dimethylamino-4-(4-methyl-3-nitropheyl)-4H-chromene], the EC50 in the assay on T-47D cells (0.016 to 1 μM final) was 200 nM; in the assay on ZR-75-1 cells (0.016 to 1 μM final), 150 nM. The “Caspase activity Ratio” value with T-47D cells is on record as 6.0; in the assay on ZR-75-1 cells, 6.6.
Turning to `COc1cc(C2C(C#N)=C(N)Oc3cc4c(cc32)OCO4)cc2c1OCO2` (stereo not drawn) [Example 14, 2-Amino-3-cyano-4-(3-methoxy-4,5-methylenedioxyphenyl)-6,7-methylenedioxy-4H-chromene], the EC50 stood at 172 nM in the assay with T-47D cells (setting [1]) and 96 nM in the assay on ZR-75-1 cells (setting [2]). In addition, the figures for the “Caspase activity Ratio” value in the assay on T-47D cells and in the assay with ZR-75-1 cells were 5.5 and 9.0, respectively.
The matching figures for `COc1cc(C2C3=CC=C4N=CC=C4C3OC(N)=C2C#N)cc(OC)c1OC` (stereo not drawn) [Example 99, 2-Amino-3-cyano-4-(3,4,5-trimethoxyphenyl)-4H-indolo[4,5-b]pyran]: 36 nM, 23 nM, 2.8 and 4.3.
In the case of `COc1cc(Br)c(C2C3=CC=C4N=CC=C4C3OC(N)=C2C#N)cc1OC` (stereo not drawn) [Example 95, 2-Amino-3-cyano-4-(2-bromo-4,5-dimethoxyphenyl)-4H-indolo[4,5-b]pyran], the EC50 with T-47D cells (setting [1]) turned out to be 720 nM; in the assay with ZR-75-1 cells (setting [2]), 364 nM. Also, the “Caspase activity Ratio” value in the assay with T-47D cells is 3.8; with ZR-75-1 cells, 5.1.
In the same order, the values of `CN(C)c1ccc2c(c1)OC(N)=C(C#N)C2c1cccc([N+](=O)[O-])c1` (stereo not drawn) [Example 38, 2-Amino-3-cyano-7-dimethylamino-4-(3-nitrophenyl)-4H-chromene] are 45 nM, 22 nM, 12.7 and 6.5.
`COc1cc(Br)c(C2C3=CC=C4N=C(C)C=C4C3OC(N)=C2C#N)cc1OC` (stereo not drawn) [Example 96, 2-Amino-3-cyano-4-(2-bromo-4,5-dimethoxyphenyl)-8-methyl-4H-indolo[4,5-b]pyran]: the “Caspase potency EC50 (nM)” value in the assay with T-47D cells (0.016 to 1 μM final) and with ZR-75-1 cells (0.016 to 1 μM final) was “Inactive” each time. Also, the “Caspase activity Ratio” value with T-47D cells and in the assay on ZR-75-1 cells was “Inactive” in each case.
For the compound `COc1cc(C2C(C#N)=C(N)Oc3c2ccc2ccccc32)cc(Br)c1OC` (stereo not drawn) [Example 103, 2-Amino-3-cyano-4-(3-bromo-4,5-dimethoxyphenyl)-4H-naphtho[1,2-b]pyran], the results for the 50% effective concentration (EC50) in the assay on T-47D cells (setting [1]) and in the assay on ZR-75-1 cells (setting [2]) were 17 nM and 12 nM, respectively. Further, the results for the “Caspase activity Ratio” value in the assay on T-47D cells and with ZR-75-1 cells were 2.2 and 4.2, respectively.
For `COc1cc(C2C3=CC=C4N=CC=C4C3OC(N)=C2C#N)cc2c1OCO2` (stereo not drawn) [Example 94, 2-Amino-3-cyano-4-(3-methoxy-4,5-methylenedioxyphenyl)-4H-indolo[4,5-b]pyran], the EC50 was 49 nM in the assay on T-47D cells (setting [1]) and 25 nM in the assay with ZR-75-1 cells (setting [2]). The “Caspase activity Ratio” value with T-47D cells amounted to 6.5; in the assay with ZR-75-1 cells, 7.8.
Turning to `COc1cc(C2C3=CC=C4N=CC=C4C3OC(N)=C2C#N)cc(Br)c1OC` (stereo not drawn) [Example 97, 2-Amino-3-cyano-4-(3-bromo-4,5-dimethoxyphenyl)-4H-indolo[4,5-b]pyran], the EC50 with T-47D cells (setting [1]) was 6 nM; in the assay with ZR-75-1 cells (setting [2]), 7 nM. The “Caspase activity Ratio” value was found to be 2.7 in the assay on T-47D cells and 5.0 with ZR-75-1 cells.

One may read the EC50 as the concentration giving half of the maximal effect.
